Active and inactive are the calls of the source. The rule behind the calls is not given here.
What was measured:
Rattus norvegicus [1] = assay: Anticonvulsant activity in ip dosed Sprague-Dawley rat assessed as protection against maximal electroshock-induced seizures; assay type: functional
Rattus norvegicus [2] = assay: Anticonvulsant activity in ip dosed Sprague-Dawley rat assessed as protection against subcutaneous metrazol-induced seizures; assay type: functional
[3] = Protective index, ratio of TD50 for neurotoxicity in ip dosed Sprague-Dawley rat to ED50 for anticonvulsant activity in ip dosed MES Sprague-Dawley rat model; assay type: toxicity, organism-based; settings: in vivo, read-out: Ratio TD50/ED50
Rattus norvegicus [4] = assay: Anticonvulsant activity in ip dosed Sprague-Dawley rat assessed as protection against maximal electroshock-induced seizures measured as time to peak effect; assay type: functional
[5] = Neurotoxicity in ip dosed Sprague-Dawley rat measured at 0.25 hr post dose; assay type: toxicity, organism-based; settings: in vivo
Rattus norvegicus [6] = assay: Anticonvulsant activity in ip dosed Sprague-Dawley rat assessed as protection against subcutaneous metrazol-induced seizures measured at 0.25 hr post dose; assay type: functional
Mus musculus [7] = assay: Anticonvulsant activity in ip dosed corneal kindled albino CF1 mouse seizure model; assay type: functional
Mus musculus [8] = assay: Anticonvulsant activity in ip dosed corneal kindled albino CF1 mouse seizure model assessed as time to peak effect; assay type: functional
Mus musculus [9] = assay: Anticonvulsant activity in albino CF1 mouse assessed as protection against maximal electroshock-induced seizures at 100 mg/kg, ip measured after 0.25 hr; assay type: functional, organism-based; design: dose 100 mg/kg
Mus musculus [10] = assay: Anticonvulsant activity in albino CF1 mouse assessed as protection against maximal electroshock-induced seizures at 100 mg/kg, ip measured after 0.5 hr; assay type: functional, organism-based; design: dose 100 mg/kg
Mus musculus [11] = assay: Anticonvulsant activity in albino CF1 mouse assessed as protection against maximal electroshock-induced seizures at 100 mg/kg, ip measured after 1 hr; assay type: functional, organism-based; design: dose 100 mg/kg
Mus musculus [12] = assay: Anticonvulsant activity in albino CF1 mouse assessed as protection against maximal electroshock-induced seizures at 100 mg/kg, ip measured after 4 hrs; assay type: functional, organism-based; design: dose 100 mg/kg
Mus musculus [13] = assay: Anticonvulsant activity in albino CF1 mouse assessed as protection against subcutaneous metrazol-induced seizures at 100 mg/kg, ip measured after 0.5 hr; assay type: functional, organism-based; design: dose 100 mg/kg
Mus musculus [14] = assay: Anticonvulsant activity in albino CF1 mouse assessed as protection against subcutaneous metrazol-induced seizures at 100 mg/kg, ip measured after 4 hrs; assay type: functional, organism-based; design: dose 100 mg/kg
Mus musculus [15] = assay: Neurotoxicity in albino CF1 mouse at 100 mg/kg, ip measured after 0.25 hr; assay type: toxicity, organism-based; design: dose 100 mg/kg, route intraperitoneal; settings: in vivo
Mus musculus [16] = assay: Neurotoxicity in albino CF1 mouse at 100 mg/kg, ip measured after 0.5 hr; assay type: toxicity, organism-based; design: dose 100 mg/kg, route intraperitoneal; settings: in vivo
Mus musculus [17] = assay: Neurotoxicity in albino CF1 mouse at 100 mg/kg, ip measured after 1 hr; assay type: toxicity, organism-based; design: dose 100 mg/kg, route intraperitoneal; settings: in vivo
Mus musculus [18] = assay: Neurotoxicity in albino CF1 mouse at 100 mg/kg, ip measured after 4 hrs; assay type: toxicity, organism-based; design: dose 100 mg/kg, route intraperitoneal; settings: in vivo
Mus musculus [19] = assay: Neurotoxicity in albino CF1 mouse at 300 mg/kg, ip measured after 0.5 hr; assay type: toxicity, organism-based; design: dose 300 mg/kg, route intraperitoneal; settings: in vivo
Mus musculus [20] = assay: Anticonvulsant activity in albino CF1 mouse assessed as protection against subcutaneous metrazol-induced seizures at 300 mg/kg, ip measured after 0.5 hr; assay type: functional, organism-based; design: dose 300 mg/kg

SMILES	ED50 (Rattus norvegicus [1])	ED50 (Rattus norvegicus [2])	selectivity ratio [3]	Time (Rattus norvegicus [4])	TD50 at 0.25 h [5]	ED50 (Rattus norvegicus [6])	ED50 (Mus musculus [7])	Time (Mus musculus [8])	Activity (Mus musculus [9])	Activity (Mus musculus [10])	Activity (Mus musculus [11])	Activity (Mus musculus [12])	Activity (Mus musculus [13])	Activity (Mus musculus [14])	Activity (Mus musculus [15])	Activity (Mus musculus [16])	Activity (Mus musculus [17])	Activity (Mus musculus [18])	Activity (Mus musculus [19])	Activity (Mus musculus [20])
CCCC(CCC)C(=O)[O-].[Na+] [VALPROATE SODIUM]	890 µmol/kg	1420 µmol/kg	2.1	0.5 h	1910 µmol/kg	1420 µmol/kg	948 µmol/kg	0.5 h	–	–	–	–	–	–	–	–	–	–	–	–
O=C1NC(=O)[C@@H](c2cccc(C(F)(F)F)c2)N2CCC[C@@H]12	–	–	–	–	–	–	–	–	inactive	inactive	inactive	inactive	inactive	inactive	Toxic	Non-toxic	Non-toxic	Non-toxic	Toxic	Active
